Measurements as given in patent publication US20090054245A1, “Method for detecting gastric cancer by detecting VLDLR gene” (FUJIFILM Corporation, priority 2006, published 2009).
“Also recorded” adds a separate entry of the source.

Legend:
[1] = tested on: human VLDLR gene expression in SNU601 and MKN74 cells; experiment: RT-PCR analysis of human VLDLR expression in gastric cancer cells treated with 5-aza-dC and/or TSA; type: cell-based
From the text: An empty pGL3 basic vector (mock) and constructs each comprising a different one of 3 sequences (fragments 1 to 3) upstream or in the proximity of VLDLR exon 1 were separately introduced into SNU601 and MKN74 cells. Luciferase activity was normalized relative to that of an internal control. Data shown in FIG. 3B contains mean values±SEMs of triplicate experiments of 3 different constructs. […] Arrows indicate fragments that were digested with restriction enzymes in a specific manner at sites recognized as methylated CpGs. […] With the use of two fragments (BS-1 and BS-2), all of the 71 CpG sites were subjected to sequencing. Squares represent CpG sites (white square: unmethylated site; and black square: methylated site).
The human VLDLR gene expression was examined in the cases in which CpG islands of the human VLDLR gene in gastric cancer cells were demethylated. Specifically, gastric cancer cells were treated in the presence of 5-aza-dC (serving as a transmethylase inhibitor) at different concentrations for 5 days, followed by determination of the capacity of inducing human VLDLR mRNA. […] RT-PCR was carried out with the use of two types of specific primers used for amplification of human VLDLR gene, followed by electrophoresis. GAPDH was used as an internal control. […]

[2] = tested on: CpG islands of the human VLDLR gene in gastric cancer cells; experiment: Demethylation of VLDLR CpG islands by culturing gastric cancer cells with 5-aza-dC; type: cell-based; conditions: gastric cancer cells cultured in the presence of 5-aza-dC
From the text: In addition, the extent of methylation of the CpG islands strongly correlated with inhibition of the expression of the human VLDLR gene in some gastric cancer cells.

| SMILES | human VLDLR gene expression level in the presence of TSA ([1]; SNU601 and MKN74 cells with densely methylated VLDLR CpG islands, TSA (10 ng/ml in FIG. 3A legend)) | demethylation of CpG islands of the human VLDLR gene [2] | human VLDLR mRNA expression after 5-aza-dC treatment ([1]; SNU601 and MKN74 cells (no VLDLR expression, no homozygous deletion), 5-aza-dC for 5 days (10 μM in FIG. 3A legend)) |
| --- | --- | --- | --- |
| CC(/C=C/C(=O)NO)=C\[C@@H](C)C(=O)c1ccc(N(C)C)cc1 [TSA, trichostatin A] | equivalent to that obtained in the absence of TSA | – | – |
| Nc1ncn([C@H]2C[C@H](O)[C@@H](CO)O2)c(=O)n1 [5-aza-dC, 5-azadeoxycytidine] | – | possible to demetylate such CpG islands | possible to recover the expression level of the human VLDLR gene; also recorded: found to have the capacity of inducing human VLDLR mRNA |
